Source: US11166946B2 (CURATIS AG, priority 2018, dated 2021)
Read-outs that look alike come from different tables or passages of the source.

Assays:
platelets = details: in vitro; cited from earlier work
mouse = details: in vivo, cited from earlier work
[1] = single administration 300 mg, human subjects; cited from earlier work
rat = details: in vivo, cited from earlier work
[2] = system: patients presenting with migraine with aura; assay: Randomized, double-blind, placebo controlled crossover study, aura events; assay type: in vivo, human
Description: A multi-center, randomized, double-blind, placebo controlled crossover study was conducted with picotamide. […] The overall study duration was 7×4 weeks. […] “Aura Events” was one of the parameters that was measured. […] These observations were particularly observed in a subgroup of patients (moderate patients) that on average had 3 to 6 aura events per month prior to study enrollment. Patients with less than 3 aura events per month could be considered mild patients and would therefore benefit to a lesser degree from treatment. Patients with 7 or more aura events could be considered severe patients that are difficult to treat.

[3] = system: patients with peripheral vascular disease; details: 300 mg, PO, t.i.d., 18-month period, 2,304 patients; cited from earlier work
mouse, rat and dog = details: cited from earlier work
[4] = oral administration; biphasic clearance; cited from earlier work

Row | Structure (SMILES) | inhibition of platelet aggregation, degranulation and TxB2 production (platelets) | LD50 (mouse; ip) [mg/kg] | LD50 (mouse; po) | time to reach maximum concentration (Tmax) [1] [min] | LD50 (rat; ip) [mg/kg] | LD50 (rat; po) | number of auras (aura events) ([2]; 300 mg twice daily 3×4 weeks, then placebo (Sequence A)) | duration of continued improvement after switch to placebo ([2]; Sequence A, after 3×4 weeks of picotamide) | effectiveness and safety [3] | tolerability after subacute and chronic treatment (mouse, rat and dog; IP and PO, mouse, rat and dog) | embryotoxic or teratogenic effects (mouse, rat and dog; in vivo) | plasma clearance half-life, first rapid phase [4]
1 | COc1ccc(C(=O)NCc2cccnc2)cc1C(=O)NCc1cccnc1 [picotamide, 4-methoxy-N,N′-bis(pyridin-3-ylmethyl)benzene-1,3-dicarboxamide] | inhibits in vitro platelet aggregation, degranulation, and TxB2 production, in a dose dependent manner | 942 ± 29 | > 3,000 mg/kg | 30 to 45 | 685 ± 27 | > 3,000 mg/kg | reduces the number of auras even after picotamide administration | continued to improve for another 2×4 weeks | effective and well-tolerated antiplatelet drug with an incidence of adverse reactions similar to that of placebo | well tolerated | did not induce embryotoxic or teratogenic effects | –
2 | COc1ccc(C(=O)NCc2cccnc2)cc1C(=O)NCc1cccnc1 [picotamide monohydrate] | – | – | – | – | – | – | – | – | – | – | – | about 2 hours
